Source: US6348486B1, “Methods for modulating bladder function” (American Home Products Corporation, priority 2000, dated 2002)

Columns and labels:
[1] = target: T1, KCNQ2/3 potassium channels (Homo sapiens, UniProt O43525+O43526); conditions: oocytes; cited from earlier work
T1 construct: host or cells: oocytes (heterologous expression, as described in the cited article)

[2] = system: isolated bladder smooth muscle cells; assay: Patch-clamp of isolated bladder smooth muscle cells (M-current activity); assay type: cell-based, rat
Description: (§1) Using quantitative rtPCR, the expression of KCNQ1, KCNQ3 and KCNQ5 potassium channels was identified in the rat urinary bladder. […] To further probe M-current activity in the bladder, retigabine (10 μM, M-current agonist) was tested in isolated bladder smooth muscle cells using standard patch-clamp techniques. […] This hyperpolarization was reversed by the addition of linopirdine (50 μM an M-current antagonist) to the tissue bath. […] This relaxation was reversed by the M-current blockers linopirdine and XE-991.

[3] = system: isolated carbachol contracted rat bladder strips; assay: Relaxation of isolated carbachol contracted rat bladder strips
Description: as §1

T1 sequence (O43526 whole entry): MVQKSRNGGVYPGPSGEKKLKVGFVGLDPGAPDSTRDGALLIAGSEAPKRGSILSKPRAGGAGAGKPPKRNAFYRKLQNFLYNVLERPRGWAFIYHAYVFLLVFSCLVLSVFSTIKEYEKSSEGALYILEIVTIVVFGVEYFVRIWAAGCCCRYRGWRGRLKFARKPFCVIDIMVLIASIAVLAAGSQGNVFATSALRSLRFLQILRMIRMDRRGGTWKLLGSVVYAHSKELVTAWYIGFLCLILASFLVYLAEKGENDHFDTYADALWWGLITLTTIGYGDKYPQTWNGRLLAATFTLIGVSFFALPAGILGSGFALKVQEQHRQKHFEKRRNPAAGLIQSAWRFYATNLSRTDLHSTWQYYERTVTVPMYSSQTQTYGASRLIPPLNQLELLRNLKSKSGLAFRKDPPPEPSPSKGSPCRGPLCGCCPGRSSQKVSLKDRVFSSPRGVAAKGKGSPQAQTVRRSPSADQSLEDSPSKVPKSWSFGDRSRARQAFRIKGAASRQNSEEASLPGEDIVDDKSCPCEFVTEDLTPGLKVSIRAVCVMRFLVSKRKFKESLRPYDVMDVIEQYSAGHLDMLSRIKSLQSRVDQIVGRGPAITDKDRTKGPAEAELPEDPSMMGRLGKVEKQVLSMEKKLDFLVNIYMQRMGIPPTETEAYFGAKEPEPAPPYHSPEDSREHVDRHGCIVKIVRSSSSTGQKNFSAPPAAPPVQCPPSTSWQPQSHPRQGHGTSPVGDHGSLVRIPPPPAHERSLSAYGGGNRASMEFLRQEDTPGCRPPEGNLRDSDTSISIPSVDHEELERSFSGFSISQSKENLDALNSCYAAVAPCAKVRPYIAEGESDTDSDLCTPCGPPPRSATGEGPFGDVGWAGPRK
T1 sequence (O43525 whole entry): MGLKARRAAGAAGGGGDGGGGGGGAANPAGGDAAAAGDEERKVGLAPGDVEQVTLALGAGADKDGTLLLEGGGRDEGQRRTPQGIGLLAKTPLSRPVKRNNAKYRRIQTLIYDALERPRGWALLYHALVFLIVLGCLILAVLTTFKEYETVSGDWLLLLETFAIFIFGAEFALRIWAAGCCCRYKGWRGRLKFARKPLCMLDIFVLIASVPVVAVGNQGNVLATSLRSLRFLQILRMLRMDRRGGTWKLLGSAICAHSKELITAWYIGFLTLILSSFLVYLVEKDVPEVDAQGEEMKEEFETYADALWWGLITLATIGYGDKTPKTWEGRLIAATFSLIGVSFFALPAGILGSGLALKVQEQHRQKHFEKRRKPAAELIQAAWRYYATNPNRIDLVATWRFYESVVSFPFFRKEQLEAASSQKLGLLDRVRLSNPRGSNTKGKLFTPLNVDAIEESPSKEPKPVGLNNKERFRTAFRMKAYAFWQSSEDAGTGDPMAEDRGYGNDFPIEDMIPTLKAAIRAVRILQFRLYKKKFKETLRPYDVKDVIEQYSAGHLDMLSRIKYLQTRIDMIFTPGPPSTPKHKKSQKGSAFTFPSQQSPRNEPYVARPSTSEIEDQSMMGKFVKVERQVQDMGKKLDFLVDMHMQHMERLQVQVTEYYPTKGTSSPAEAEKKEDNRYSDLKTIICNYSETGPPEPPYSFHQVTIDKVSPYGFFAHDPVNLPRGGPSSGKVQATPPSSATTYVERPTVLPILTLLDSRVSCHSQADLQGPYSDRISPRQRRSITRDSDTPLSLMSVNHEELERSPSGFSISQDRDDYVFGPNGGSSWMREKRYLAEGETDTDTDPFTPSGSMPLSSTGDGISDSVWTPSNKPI

SMILES	channel deactivation [1]	rate of channel activation [1]	voltage dependence of channel activation [1]	membrane hyperpolarization ([2]; retigabine 10 μM, n=5) [mV]	outward current insensitive to iberiotoxin ([2]; retigabine 10 μM, standard patch-clamp)	IC50 ([3]; Rattus norvegicus, read-out: IC50 for relaxation of carbachol contracted bladder strips) [µM]	reversal of retigabine-induced relaxation by M-current blockers [3]	reversal of retigabine-induced hyperpolarization ([2]; linopirdine 50 μM added to the tissue bath)
CCOC(=O)Nc1ccc(NCc2ccc(F)cc2)cc1N [retigabine, N-[2-amino-4-(4-fluorobenzylamino)-phenyl]carbamic acid ethyl ester]	slows channel deactivation	increases the rate of channel activation	shifts the voltage dependence of channel activation to more hyperpolarized membrane potentials	17.8±3.0	significantly increased	3.5 ± 0.9	–	–
O=C1c2ccccc2C(Cc2ccncc2)(Cc2ccncc2)c2ccccc21 [XE-991]	–	–	–	–	–	–	reversed	–
O=C1N(c2ccccc2)c2ccccc2C1(Cc1ccncc1)Cc1ccncc1 [linopirdine]	–	–	–	–	–	–	reversed	reversed
